Values belong to the compound of their own block, whether it stands above or below them.
Assay: photoluminescence quantum yield (fraction); solvent given as SMILES

- photoluminescence quantum yield (in ClCCl): 0.0041
SMILES: CC1=C(c2ccc(N(C)C)cc2)C(C)=[N+]2C1=C(c1c(-c3ccccn3)nc3ccccn13)c1c(C)cc(C)n1[B-]2(F)F

- photoluminescence quantum yield (in C1CCOC1): 0.63
SMILES: CC(C)(C)c1ccc2c(c1)c1cc(C(C)(C)C)cc3c1n2B1c2c-3cccc2-c2cc(C(C)(C)C)cc3c4cc(C(C)(C)C)ccc4n1c23

- photoluminescence quantum yield (in ClCCl): 0.09
SMILES: COc1ccc(-c2cc3c(ccc4sc5ccc6sc(-c7ccc(C#N)cc7)cc6c5c43)s2)cc1

- photoluminescence quantum yield (in C1CCOC1): 0.14
- photoluminescence quantum yield (in ClC(Cl)Cl): 0.144
SMILES: CCCCCCCCC1(CCCCCCCC)c2cc3c(cc2-c2sc(-c4ccc(/C=C5\SC(N6CCCCC6)=NC5=O)c5nsnc45)cc21)C(CCCCCCCC)(CCCCCCCC)c1cc(-c2ccc(/C=C4\SC(N5CCCCC5)=NC4=O)c4nsnc24)sc1-3

- photoluminescence quantum yield (in ClCCl): 0.054
SMILES: COC(=O)/C=C/C=C/C1=CC2=C(c3c(C)cc(C)cc3C)c3cc(/C=C/C=C/C(=O)OC)cn3[B-](F)(F)[N+]2=C1

- photoluminescence quantum yield (in C1COCCO1): 0.192
SMILES: COC(=O)c1ccc(/C=C2\C=C(c3ccc(C#N)cc3)N(CC(C)C)C2=O)cc1

- photoluminescence quantum yield (in c1cc(-c2cccc(-n3c4ccccc4c4ccccc43)c2)cc(-n2c3ccccc3c3ccccc32)c1): 0.56
SMILES: Cc1cc(C)c2c(c1)c1cc(C)cc(C)c1n2-c1ccc2c(c1)B(c1c(C(C)C)cc(C(C)C)cc1C(C)C)c1cc(-n3c4c(C)cc(C)cc4c4cc(C)cc(C)c43)ccc1N2c1ccccc1

- photoluminescence quantum yield (in ClC(Cl)Cl): 0.27
SMILES: CCCN1c2ccccc2Sc2cc(/C=C\c3cc(=O)oc4cc(C)ccc34)ccc21

More lines, now with the values behind:

SMILES: CN1c2cc3nc4cc(F)c(F)cc4nc3cc2N(C)C1(C)C
- photoluminescence quantum yield (in CCO): 0.8

SMILES: CC1=[N+]2C(=Cc3cccn3[B-]2(F)F)C=C1
- photoluminescence quantum yield (in CCCCCC): 0.96
- photoluminescence quantum yield (in CO): 1
- photoluminescence quantum yield (in ClCCl): 0.92

SMILES: COc1c2ccccc2c(OC)c2c1c1ccc(F)cc1n2C
- photoluminescence quantum yield (in C1CCCCC1): 0.36
- photoluminescence quantum yield (in CC#N): 0.27
- photoluminescence quantum yield (in CO): 0.34
- photoluminescence quantum yield (in ClCCl): 0.45

SMILES: COC(=O)C1=C(C(=O)OC)C2=C[C@H]3c4ccccc4[C@]2([Se]1)c1ccccc13
- photoluminescence quantum yield (in ClCCl): 0.86

SMILES: F[Si](c1ccccc1)(c1ccccc1)c1c2ccccc2cc2ccccc12
- photoluminescence quantum yield (in C1CCOC1): 0.86
- photoluminescence quantum yield (in ClC(Cl)Cl): 0.52

SMILES: F[B-]1(F)n2c(-c3ccccc3)cc(-c3ccccc3)c2C(c2ccccc2)=C2C(c3ccccc3)=CC(c3ccccc3)=[N+]21
- photoluminescence quantum yield (in C1CCOC1): 0.31

SMILES: c1ccc(-c2nnc(-c3ccc(N4c5ccccc5Oc5ccccc54)cc3)n2-c2ccccc2)cc1
- photoluminescence quantum yield (in Cc1ccccc1): 0.127

SMILES: CCN(CC)c1ccc2cc(C#N)/c(=N\C(C)=O)oc2c1
- photoluminescence quantum yield (in CCO): 0.15
- photoluminescence quantum yield (in ClCCl): 0.8

SMILES: Cc1cc2c3ccccc3[nH]c2c2[nH]c3ccccc3c12
- photoluminescence quantum yield (in ClCCl): 0.075

SMILES: CC(=O)c1ccc(-c2cnc3nn4ccccc4c3n2)cc1
- photoluminescence quantum yield (in C1CCOC1): 0.5

SMILES: O=CC1=C(c2ccc(-c3cccs3)s2)CC1
- photoluminescence quantum yield (in CCO): 0.32

SMILES: COc1nc(Nc2ccc3cc4ccccc4cc3c2)nc(OC)n1
- photoluminescence quantum yield (in C1COCCO1): 0.45
- photoluminescence quantum yield (in CC#N): 0.37
- photoluminescence quantum yield (in CCCCOCCCC): 0.39
- photoluminescence quantum yield (in CCOC(C)=O): 0.26

SMILES: CC1=C(C(C)(C)C)C(C)=[N+]2C1=C(C)c1c(C)c(C(C)(C)C)c(C)n1[B-]2(F)F
- photoluminescence quantum yield (in C1CCCCC1): 0.32
- photoluminescence quantum yield (in C1CCOC1): 0.37
- photoluminescence quantum yield (in C1COCCO1): 0.4
- photoluminescence quantum yield (in CC#N): 0.44
- photoluminescence quantum yield (in CC(C)=O): 0.44
- photoluminescence quantum yield (in CC(C)CC(C)(C)C): 0.4
- photoluminescence quantum yield (in CCC(C)C): 0.4
- photoluminescence quantum yield (in CCCC(C)=O): 0.46
- photoluminescence quantum yield (in CCCCCC): 0.43
- photoluminescence quantum yield (in CCCCCCCCO): 0.41
- photoluminescence quantum yield (in CCCCCCO): 0.42
- photoluminescence quantum yield (in CCCCO): 0.39
- photoluminescence quantum yield (in CCCCOC(C)=O): 0.43
- photoluminescence quantum yield (in CCCO): 0.39
- photoluminescence quantum yield (in CCO): 0.43
- photoluminescence quantum yield (in CCOC(C)=O): 0.44
- photoluminescence quantum yield (in CCOCC): 0.43
- photoluminescence quantum yield (in CN(C)C=O): 0.35
- photoluminescence quantum yield (in CNC=O): 0.47
- photoluminescence quantum yield (in CO): 0.48
- photoluminescence quantum yield (in COC(C)=O): 0.48
- photoluminescence quantum yield (in OCC(F)(F)F): 0.49

SMILES: Brc1cnc(-c2ccc(N(c3ccccc3)c3ccccc3)cc2)s1
- photoluminescence quantum yield (in CO): 0.04
